Holding throughout (set-up): species or system mouse
Assay [1] deals with Aβ42. Nature of the assay: In vivo efficacy: brain soluble Aβ42 in non-transgenic rodents (MSD electrochemiluminescence multiplex). The conditions noted are these: Mus musculus, po, 4 h, dose 30 mg/kg oral dosing, brain soluble fraction, animals sacrificed after 4 h, untreated animals (Ctrl) set at 100, read-out: Aβ42 (% vs Ctrl)_Mean. The source says:
(§1) To determine whether acute administration of an Aβ42 lowering agent would reduce Aβ42 levels in vivo, non-transgenic rodents, e.g. mice or rats were used. Animals treated with the Aβ42 lowering agent were examined and compared to those untreated or treated with vehicle and brain levels of soluble Aβ42, Aβ40, Aβ38, and Aβ37 were quantitated by Meso Scale Discovery's (MSD) electrochemiluminescence detection technology. Treatment periods varied from hours (h) to days and were adjusted based on the results of the Aβ42 lowering once a time course of onset of effect could be established.
(§2) A typical protocol for measuring Aβ42 lowering in vivo is shown but it is only one of many variations that could be used to optimize the levels of detectable Aβ. For example, Aβ42 lowering compounds were formulated in 20% of Captisol® (a sulfo-butyl ether of β-cyclodextrin) in water or 20% hydroxypropyl βcyclodextrin. The Aβ42 lowering agents were administered as a single oral dose or by any acceptable route of administration to overnight fasted animals. After 4 h, the animals were sacrificed and Aβ42 levels were analysed.
(§3) Blood was collected by decapitation and exsanguinations in EDTA-treated collection tubes. Blood was centrifuged at 1900 g for 10 minutes (min) at 4° C. and the plasma recovered and flash frozen for later analysis. The brain was removed from the cranium and hindbrain. The cerebellum was removed and the left and right hemisphere were separated. The left hemisphere was stored at −18° C. for quantitative analysis of test compound levels. The right hemisphere was rinsed with phosphate-buffered saline (PBS) buffer and immediately frozen on dry ice and stored at −80° C. until homogenization for biochemical assays.
(§4) Mouse brains from non-transgenic animals were resuspended in 8 volumes of 0.4% DEA (diethylamine)/50 mM NaCl containing protease inhibitors (Roche-11873580001 or 04693159001) per gram of tissue, e.g. for 0.158 g brain, add 1.264 ml of 0.4% DEA. All samples were homogenized in the FastPrep-24 system (MP Biomedicals) using lysing matrix D (MPBio #6913-100) at 6 m/s for 20 seconds. Homogenates were centrifuged at 20800×g for 5 min and supernatants collected. Supernatants were centrifuged at 221.300×g for 50 min. The resulting high speed supernatants were then transferred to fresh eppendorf tubes. Nine parts of supernatant were neutralized with 1 part 0.5 M Tris-HCl pH 6.8 and used to quantify Aβ.
(§5) To quantify the amount of Aβ42, Aβ40, Aβ38, and Aβ37 in the soluble fraction of the brain homogenates, simultaneous specific detection of Aβ42, Aβ40, Aβ38, and Aβ37 was performed using MSD's electro-chemiluminescence multiplex detection technology. In this assay purified monoclonal antibodies specific for Abeta37 (JRD/Aβ37/3), Abeta38 (J&JPRD/Aβ38/5), Abeta40 (JRF/cAβ40/28), and Abeta42 (JRF/cAβ42/26) were coated on MSD 4-plex plates. Briefly, the standards (a dilution of synthetic Aβ42, Aβ40, Aβ38, and Aβ37) were prepared in 1.5 ml Eppendorf tube in Ultraculture, with final concentrations ranging from 10000 to 0.3 pg/m. The samples and standards were co-incubated with Sulfo-tag labelled JRF/rAβ/2 antibody to the N-terminus of Aβ as detector antibody. 50 μl of conjugate/sample or conjugate/standards mixtures were then added to the antibody-coated plate. The plate was allowed to incubate overnight at 4° C. in order to allow formation of the antibody-amyloid complex. Following this incubation and subsequent wash steps the assay was finished by adding read buffer according to the manufacturer's instructions (Meso Scale Discovery, Gaitherburg, Md.).
(§6) The SULFO-TAG emits light upon electrochemical stimulation initiated at the electrode. MSD Sector instrument SI6000 was used for signal read-out.
In this model a Aβ42 lowering compared to untreated animals would be advantageous, in particular a Aβ42 lowering with at least 10%, more in particular a Aβ42 lowering with at least 20%. […]

The subject of assay [2] is Aβ38. Nature of the assay: In vivo efficacy: brain soluble Aβ38 in non-transgenic rodents (MSD electrochemiluminescence multiplex). The conditions noted are these: Mus musculus, po, 4 h, dose 30 mg/kg oral dosing, brain soluble fraction, animals sacrificed after 4 h, untreated animals (Ctrl) set at 100, read-out: Aβ38 (% vs Ctrl)_Mean.
Text: To determine whether acute administration of an Aβ38 increasing agents would increase Aβ38 levels in vivo, non-transgenic rodents, e.g. mice or rats were used. Animals treated with the Aβ38 increasing agents were examined and compared to those untreated or treated with vehicle and brain levels of soluble Aβ42, Aβ40, Aβ38, and Aβ37 were quantitated by MSD electrochemiluminescence detection technology. Treatment periods varied from hours (h) to days and were adjusted based on the results of the Aβ38 increase once a time course of onset of effect could be established.
A typical protocol for measuring Aβ38 increase in vivo is shown but it is only one of many variations that could be used to optimize the levels of detectable Aβ. For example, Aβ38 increasing agents were formulated in 20% of Captisol® (a sulfobutyl ether of β-cyclodextrin) in water or 20% hydroxypropyl βcyclodextrin. The Aβ38 increasing agents were administered as a single oral dose or by any acceptable route of administration to overnight fasted animals. After 4 h, the animals were sacrificed and Aβ38 levels were analysed.
as §3, §4
as §5, with “(MesoScale” for “(Meso Scale”
as §6
In this model a Aβ38 increase compared to untreated animals would be advantageous, in particular a Aβ38 increase with at least 10%, more in particular a Aβ38 increase with at least 20%. […]

Assay [3] deals with Aβ40. Nature of the assay: In vivo efficacy: brain soluble Aβ40 in non-transgenic rodents (MSD electrochemiluminescence multiplex). The conditions noted are these: Mus musculus, po, 4 h, dose 30 mg/kg oral dosing, brain soluble fraction, animals sacrificed after 4 h, untreated animals (Ctrl) set at 100, read-out: Aβ40 (% vs Ctrl)_Mean.
Text: as §1, §2, §3, §4, §5, §6
The results are shown in Table 5 (dose 30 mg/kg oral dosing) (value for untreated animals as control (Ctrl) was set at 100): […]

Structures are written as SMILES.

For `Cc1cn(-c2ccc3n(c2=O)CC(C)N(Cc2c[nH]c4cc(C(F)(F)F)ccc24)C3=O)cn1` (stereo not drawn) [compound 203], the response vs control in vivo at 30 mg/kg came to 67% in assay [1], 133% in assay [2] and 137% in assay [3].

These data come from US20150141411A1, “SUBSTITUTED 3,4-DIHYDRO-2H-PYRIDO[1,2-A]PYRAZINE-1,6-DIONE DERIVATIVES USEFUL FOR THE TREATMENT OF (INTER ALIA) ALZHEIMER'S DISEASE” (Janssen Pharmaceuticals, Inc., priority 2012, published 2015).
